Test [1] addresses T1, His-GST-TVMV-hRIPK1(1-324) (Homo sapiens, UniProt Q13546).
T1 construct: The coding region of human RIPK1(1-324) flanked by NdeI site at 5′ end; made in house; host or cells: Spodoptera frugiperda (Sf9) insect cells, baculovirus
T1 sequence (Q13546 1-324): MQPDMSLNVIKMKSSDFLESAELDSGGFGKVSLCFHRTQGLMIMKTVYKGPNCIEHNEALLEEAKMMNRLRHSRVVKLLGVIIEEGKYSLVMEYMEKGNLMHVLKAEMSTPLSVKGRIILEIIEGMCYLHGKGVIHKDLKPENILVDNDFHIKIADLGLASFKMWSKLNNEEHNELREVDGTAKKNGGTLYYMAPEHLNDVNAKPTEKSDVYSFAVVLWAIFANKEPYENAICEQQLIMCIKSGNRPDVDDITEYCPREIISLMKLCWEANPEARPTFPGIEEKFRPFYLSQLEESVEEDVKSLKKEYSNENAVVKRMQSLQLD
In words: RIPK1 HTRF Binding Assay. On the technique in general: TR-FRET usually uses a lanthanide donor and a delayed reading to cut background.

Test [2] deals with MLKL phosphorylation in HT29-L23 human colorectal adenocarcinoma cells. Description: MLKL Phosphorylation High-Content Assay. The settings on record: Homo sapiens. Format: cell-based. A digest of the protocol:
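IC50 and Ymax obtained by 4-parameter logistic fitting of MLKL phosphorylation, measured as mean circ-ring average intensity ratio from high-content images. Staining used an anti-phospho-S358 MLKL antibody overnight at 4° C., following six-hour cell incubation at 37° C.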

Where [3] appears, read: x marks IC50 class <20 nM, read-out: RIPK1 HTRF binding <20 nM.
Where [4] appears, read: x marks IC50 class 20-200 nM, read-out: pMLKL cell activity 20-200 nM.
The mark [5] stands for this setting: x marks IC50 class <20 nM, read-out: pMLKL cell activity <20 nM.
The mark [6] stands for this setting: x marks IC50 class 20-200 nM, read-out: RIPK1 HTRF binding 20-200 nM.
The mark [7] stands for this setting: x marks IC50 class >200 nM, read-out: pMLKL cell activity >200 nM.
Where [8] appears, read: x marks IC50 class >200 nM, read-out: RIPK1 HTRF binding >200 nM.

Molecules are shown by their SMILES. Where two headings read alike, the source gives them in different places. Bounds are passed on as bounds.

With `CCOc1ncc(-c2ccn3nc(N)nc3c2)cc1C(=O)NCc1cc(F)cc(F)c1OCC1CCCC1` [Example 14, 5-{2-Amino-[1,2,4]triazolo[1,5-a]pyridin-7-yl}-N-{[2-(cyclopentylmethoxy)-3,5-difluorophenyl]methyl}-2-ethoxypyridine-3-carboxamide], the IC50 in test [1] (setting [3]) was < 20 nM; in test [2] (setting [4]) it was 20 to 200 nM.
With `[2H]C([2H])(NC(=O)c1cc(-c2ccn3nc(N)nc3c2)cnc1C)c1cc(F)cc(F)c1OCC1CC1` [Example 253, 5-{2-amino-[1,2,4]triazolo[1,5-a]pyridin-7-yl}-N-{[2-(cyclopropylmethoxy)-3,5-difluorophenyl](deutero)methyl}-2-methylpyridine-3-carboxamide], the IC50 in test [1] (setting [3]) and in test [2] (setting [5]) was < 20 nM each time.
In the case of `Cc1cnc(-c2ccn3nc(N)nc3c2)cc1C(=O)NCc1cc(OC(F)(F)F)ccc1F` [Example 394, 2-(2-amino-[1,2,4]triazolo[1,5-a]pyridin-7-yl)-N-(2-fluoro-5-(trifluoromethoxy)benzyl)-5-methylisonicotinamide], the IC50 is < 20 nM in test [1] (setting [3]) and 20 to 200 nM in test [2] (setting [4]).
For the compound `Cc1nc(C)c(-c2ccn3nc(N)nc3c2)cc1C(=O)NCc1cc(C(F)(F)F)ccc1F` [Example 192, 5-{2-amino-[1,2,4]triazolo[1,5-a]pyridin-7-yl}-N-{[2-fluoro-5-(trifluoromethyl)phenyl]methyl}-2,6-dimethylpyridine-3-carboxamide], the IC50 in test [1] (setting [3]) and in test [2] (setting [5]) was < 20 nM in each case.
For `CCOc1ncc(-c2ccn3nc(N)nc3c2)cc1C(=O)NCCc1ccccc1Oc1ccccc1` [Example 269, 5-{2-amino-[1,2,4]triazolo[1,5-a]pyridin-7-yl}-2-ethoxy-N-[2-(2-phenoxyphenyl)ethyl]pyridine-3-carboxamide], the IC50 was < 20 nM in test [1] (setting [3]) and 20 to 200 nM in test [2] (setting [4]).
As for `Nc1nc2cc(-c3cnc(Cl)c(C(=O)NCc4ccccc4OC(F)(F)F)c3)ccn2n1` [Example 168, 5-{2-amino-[1,2,4]triazolo[1,5-a]pyridin-7-yl}-2-chloro-N-{[2-(trifluoromethoxy)phenyl]methyl}pyridine-3-carboxamide], the IC50 is 20 to 200 nM in test [1] (setting [6]) and > 200 nM in test [2] (setting [7]).
Consider `[2H]C([2H])(NC(=O)c1cc(-c2ccn3nc(N)nc3c2)c(C)nc1C)c1cc(OC(F)(F)F)ccc1F` [Example 191], for which the IC50 in test [1] (setting [3]) and in test [2] (setting [5]) was < 20 nM throughout.
On to `Cc1ncc(-c2ccn3nc(N)nc3c2)cc1C(=O)N(C)[C@H](C)c1cc(OC(F)(F)F)ccc1F` [Example 318, (R)-5-(2-amino-[1,2,4]triazolo[1,5-a]pyridin-7-yl)-N-(1-(2-fluoro-5-(trifluoromethoxy)phenyl)ethyl)-N,2-dimethylnicotinamide], for which the IC50 in test [1] (setting [8]) is > 200 nM; in test [2] (setting [4]), 20 to 200 nM.
As for `[2H]C([2H])([2H])[C@H](NC(=O)c1cc(-c2ccn3nc(N)nc3c2)cnc1OC)c1cc(C(F)(F)F)ccc1F` [Example 347, (S)-5-(2-amino-[1,2,4]triazolo[1,5-a]pyridin-7-yl)-N-(1-(2-fluoro-5-(trifluoromethyl)phenyl)ethyl-2,2,2-d3)-2-methoxynicotinamide], the IC50 in test [1] (setting [6]) and in test [2] (setting [4]) was 20 to 200 nM each time.
As to `CCOc1ncc(-c2ccn3nc(N)nc3c2)cc1C(=O)NCC1(c2ccccc2F)CC1` [Example 274, 5-{2-amino-[1,2,4]triazolo[1,5-a]pyridin-7-yl}-2-ethoxy-N-{[1-(2-fluorophenyl)cyclopropyl]methyl}pyridine-3-carboxamide], the IC50 in test [1] (setting [8]) was > 200 nM; in test [2] (setting [4]), 20 to 200 nM.
For `COc1nc(C)c(-c2ccn3nc(N)nc3c2)cc1C(=O)NCc1ccccc1OC1CCCC1` [Example 219, 5-{2-amino-[1,2,4]triazolo[1,5-a]pyridin-7-yl}-N-{[2-(cyclopentyloxy)phenyl]methyl}-2-methoxy-6-methylpyridine-3-carboxamide], the IC50 in test [1] (setting [3]) and in test [2] (setting [5]) was < 20 nM throughout.
Regarding `COc1ncc(-c2ccn3nc(N)nc3c2)cc1C(=O)N1CCCC(Cc2ccc(Cl)cc2)C1` (centres unmarked) [Example 117, 7-(5-{3-[(4-chlorophenyl)methyl]piperidine-1-carbonyl}-6-methoxypyridin-3-yl)-[1,2,4]triazolo[1,5-a]pyridin-2-amine], the IC50 in test [1] (setting [6]) was 20 to 200 nM; in test [2] (setting [7]), > 200 nM.
`COc1nc(C)c(-c2ccn3nc(N)nc3c2)cc1C(=O)NCc1cc(F)cc(F)c1OCC(C)C` [Example 333, 5-(2-amino-[1,2,4]triazolo[1,5-a]pyridin-7-yl)-N-(3,5-difluoro-2-isobutoxybenzyl)-2-methoxy-6-methylnicotinamide]: the IC50 in test [1] (setting [3]) was < 20 nM; in test [2] (setting [4]) it was 20 to 200 nM.
For the compound `[2H]C([2H])([2H])Oc1ncc(-c2ccn3nc(N)nc3c2)cc1C(=O)NC(C)c1ccccc1OC(F)(F)F` (single isomer, unassigned) [Example 95-2, 5-{2-amino-[1,2,4]triazolo[1,5-a]pyridin-7-yl}-2-(deutero)methoxy-N-{1-[2-(trifluoromethoxy)phenyl]ethyl}pyridine-3-carboxamide], the IC50 in test [1] (setting [3]) and in test [2] (setting [5]) was < 20 nM throughout.
In the case of `Cc1ncc(-c2ccn3nc(N)nc3c2)cc1C(=O)NCc1cc(OC(F)(F)F)ccc1F` [Example 229, 5-{2-amino-[1,2,4]triazolo[1,5-a]pyridin-7-yl}-N-{[2-fluoro-5-(trifluoromethoxy)phenyl]methyl}-2-methylpyridine-3-carboxamide], the IC50 is < 20 nM in test [1] (setting [3]) and 20 to 200 nM in test [2] (setting [4]).
In the case of `COc1ncc(-c2ccn3nc(N)nc3c2)cc1C(=O)NCc1c(F)cc(F)cc1OCC1CCCC1` [Example 122, 5-{2-amino-[1,2,4]triazolo[1,5-a]pyridin-7-yl}-N-{[2-(cyclopentylmethoxy)-4,6-difluorophenyl]methyl}-2-methoxypyridine-3-carboxamide], the IC50 in test [1] (setting [3]) is < 20 nM; in test [2] (setting [4]), 20 to 200 nM.
On the same counts, the results for `COc1nc(C)c(-c2ccn3nc(N)nc3c2)cc1C(=O)NCc1cccc(F)c1CN1CCOCC1` [Example 355, 5-(2-amino-[1,2,4]triazolo[1,5-a]pyridin-7-yl)-N-(3-fluoro-2-(morpholinomethyl)benzyl)-2-methoxy-6-methylnicotinamide] are < 20 nM and 20 to 200 nM.
In the case of `CC(CCNC(=O)c1cc(-c2ccn3nc(N)nc3c2)cnc1Cl)c1ccccc1` (centres unmarked) [Example 169, 5-{2-amino-[1,2,4]triazolo[1,5-a]pyridin-7-yl}-2-chloro-N-(3-phenylbutyl)pyridine-3-carboxamide], the figures for the IC50 in test [1] (setting [6]) and in test [2] (setting [7]) were 20 to 200 nM and > 200 nM, respectively.
On the same counts, the results for `COc1nc(C)c(-c2ccn3nc(N)nc3c2)cc1C(=O)NCCc1ccccc1OC(F)(F)F` [Example 194, 5-{2-amino-[1,2,4]triazolo[1,5-a]pyridin-7-yl}-2-methoxy-6-methyl-N-{2-[2-(trifluoromethoxy)phenyl]ethyl}pyridine-3-carboxamide] are 20 to 200 nM and > 200 nM.
On to `COc1ncc(-c2ccn3nc(N)nc3c2)cc1C(=O)NCc1ccccc1Oc1ccccn1` [Example 109, 5-{2-amino-[1,2,4]triazolo[1,5-a]pyridin-7-yl}-2-methoxy-N-{[2-(pyridin-2-yloxy)phenyl]methyl}pyridine-3-carboxamide], for which the IC50 in test [1] (setting [3]) and in test [2] (setting [5]) was < 20 nM throughout.
As for `CCOc1ncc(-c2ccn3nc(N)nc3c2)cc1C(=O)NCc1ccccc1OC(F)F` [Example 271, 5-{2-amino-[1,2,4]triazolo[1,5-a]pyridin-7-yl}-N-{[2-(difluoromethoxy)phenyl]methyl}-2-ethoxypyridine-3-carboxamide], the IC50 in test [1] (setting [6]) is 20 to 200 nM; in test [2] (setting [7]) it was > 200 nM.
Turning to `COc1ncc(-c2ccn3nc(N)nc3c2)cc1C(=O)Nc1cnn(C(C)c2ccc(F)cc2)c1` (single isomer, unassigned) [Example 76-1], the IC50 in test [1] (setting [3]) and in test [2] (setting [5]) was < 20 nM throughout.
For the compound `COc1ncc(-c2ccn3nc(N)nc3c2)cc1C(=O)NCc1cc(F)ccc1OCC(F)(F)F` [Example 339, 5-(2-amino-[1,2,4]triazolo[1,5-a]pyridin-7-yl)-N-(5-fluoro-2-(2,2,2-trifluoroethoxy)benzyl)-2-methoxynicotinamide], the IC50 in test [1] (setting [3]) and in test [2] (setting [5]) was < 20 nM throughout.
For `[2H]C([2H])([2H])[C@@H](NC(=O)c1cc(-c2ccn3nc(N)nc3c2)c(C)nc1C)c1cc(OC(F)(F)F)ccc1F` [Example 286, (R)-5-(2-amino-[1,2,4]triazolo[1,5-a]pyridin-7-yl)-N-(1-(2-fluoro-5-(trifluoromethoxy)phenyl)ethyl-2,2,2-d3)-2,6-dimethylnicotinamide], the IC50 is < 20 nM in test [1] (setting [3]) and 20 to 200 nM in test [2] (setting [4]).
Regarding `CCc1ncc(-c2ccn3nc(N)nc3c2)cc1C(=O)NCc1cc(OC(F)(F)F)ccc1F` [Example 86, 5-{2-amino-[1,2,4]triazolo[1,5-a]pyridin-7-yl}-2-ethyl-N-{[2-fluoro-5-(trifluoromethoxy)phenyl]methyl}pyridine-3-carboxamide], the IC50 in test [1] (setting [3]) is < 20 nM; in test [2] (setting [4]), 20 to 200 nM.

(Values after patent publication US10913738B2 (BRISTOL-MYERS SQUIBB COMPANY, priority 2017, dated 2021).)
